Holding throughout (test): inhibition of tumour cell growth, NCI panel, 48 h
Assay [1] deals with M14 melanoma.
For assay [2], the system named is HT29 colon.
For assay [3], the system named is SF-539 CNS.
Assay [4] deals with LOX IMVI melanoma.
Assay [5] deals with K-562 leukemia.
Assay [6] relates to PC-3 prostate.
Assay [7] relates to HCT-116 colon.
In assay [8] the test system is SF-295 CNS.
Assay [9] concerns SW-620 colon.
Assay [10] has as its system MDA-MB-435.

Where “and” joins values, the source holds several entries; their conditions need not be identical. Identical values can stand only once.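 Growth conditions: 96-well plates. Treatment: test compound, 48 hours, 5 concentrations. Analysis: linear interpolation between bracketing concentrations; unreached endpoints set to highest concentration. GI50: concentration for 50% inhibition of growth. Definition used: TGI = concentration required for complete inhibition of growth.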 Where only a bound is given, the exact number is not on record here.

Regarding `Cc1ccc(C2=Nc3c(N)ncnc3NC(c3cccc(Nc4ccnc5cc(C(F)(F)F)ccc45)c3)C2)cc1` (stereo not drawn), the GI50 in assay [1] was 2.11 µM; in [2], 2.45 µM; in [3] it was 2.68 µM; in assay [4], 2.34 µM; in assay [5] it was 3.44 µM; in assay [6], 2.8 µM. Besides, the GI50 in assay [7] was 2.86 µM; in [8], 2.33 µM; in assay [9], 2.87 µM; in assay [10] it was 1.94 µM. In addition, the TGI in assay [1] was 5.29 µM; in assay [2], 7.29 µM; in assay [3] it was 9.26 µM; in assay [4], 6.13 µM; in assay [5] it was above 100 µM; in assay [6] it was 12.5 µM. The TGI in assay [7] worked out at 10.5 µM; in assay [8], 6.88 µM; in assay [9] it was 11.3 µM; in assay [10] it was 4.84 µM.

For `Cc1ccc([P+](Cc2ccc([N+](=O)[O-])cc2)(c2ccc(C)cc2)c2ccc(C)cc2)cc1`, the GI50 was 2.96 µM in assay [1]; 2.51 µM in [2]; 4.06 µM in assay [3]; 2.32 µM in [4]; 1.28 µM in assay [5]; 2.64 µM in [6]. In addition, the GI50 in assay [7] is 1.49 µM; in [8], 5.24 µM; in assay [9] it was 3.07 µM; in assay [10], 0.772 µM. In addition, the TGI in assay [1] came out at 12.3 µM; in [2], 12.8 µM; in assay [3], 15.9 µM; in assay [4] it was 12.5 µM; in assay [5] it was 12.3 µM; in [6], 14.3 µM. Also, the TGI in assay [7] came to 12 µM; in assay [8], 18.6 µM; in [9] it was 15.4 µM; in [10], 3.6 µM.

Regarding `CC(C)(C)n1cc(-c2ccnc(NCCNS(=O)(=O)c3ccc(Br)cc3)c2)c(-c2cccc(O)c2)n1`, the GI50 was 1.77 µM in assay [1]; 1.52 µM in assay [2]; 1.54 µM in [3]; 1.75 µM in [4]; 0.573 µM in assay [5]; 1.46 µM in assay [6]. In addition, the GI50 in assay [7] was 1.44 µM; in assay [8], 1.82 µM; in [9], 1.72 µM; in [10] it was 1.78 µM. For the same compound, the TGI in [1] came out at 3.4 µM; in assay [2], 3.75 µM; in [3], 3.11 µM; in assay [4] it was 3.15 µM; in [5] it was 2.85 µM; in [6], 4.38 µM. Further, the TGI was determined as 2.86 µM in assay [7], 3.61 µM in assay [8], 3.46 µM in assay [9] and 3.35 µM in [10].

As to `CC(CC(=O)O)(CC(=O)O)C(=O)O`, the TGI in [1], in assay [2], in [3], in [4], in assay [5] and in assay [6] was above 100 µM in each case. The TGI in assay [7], in assay [8], in assay [9] and in assay [10] was above 100 µM in each case.

For `Oc1cccc(-c2nc3ccccc3s2)c1`, the TGI is 60.4 µM in assay [1]; 42.9 µM in [2]; above 100 µM in assay [3]; 77 µM in [4]; above 100 µM in [5]; above 100 µM in assay [6]. In addition, the TGI in assay [7] was above 100 µM; in assay [8], 86.7 µM; in assay [9], above 100 µM; in assay [10] it was above 100 µM.

`Cn1c(=O)n(-c2ccc(C(C)(C)C#N)cc2)c2c3cc(-c4cnc5ccccc5c4)ccc3ncc21`: the GI50 is 0.018 µM and 0.00656 µM and < 0.01 µM in assay [1]; 0.0101 µM and 0.00603 µM and < 0.01 µM in assay [2]; < 0.01 µM and 0.00503 µM in [3]; < 0.01 µM and 0.00522 µM in [4]; 0.0315 µM and 0.00731 µM and 0.0118 µM in assay [5]; < 0.01 µM and 0.0063 µM in assay [6]. Further, the GI50 was 0.0312 µM and 0.00938 µM and 0.0298 µM in assay [7]; < 0.01 µM and 0.00401 µM in assay [8]; 0.0163 µM and 0.00734 µM and < 0.0116 µM in assay [9]; < 0.01 µM and 0.00572 µM in assay [10]. Further, the TGI in assay [3] was 0.0761 µM and 0.0316 µM and 0.118 µM; in assay [4], above 100 µM; in assay [5], above 100 µM; in assay [6], above 100 µM; in [7], above 100 µM; in assay [8], 0.0278 µM and 0.0203 µM and 0.0181 µM. Besides, the TGI in assay [9] was above 100 µM; in [10], 0.0687 µM.

Consider `CC1(C)N=C(N)N=C(N)N1c1ccc(OCC(=O)Nc2cccc(S(=O)(=O)F)c2)c(Cl)c1`, for which the TGI in [1] is above 100 µM; in [2] it was above 100 µM; in [3], above 100 µM; in assay [4], above 100 µM; in assay [5], above 100 µM; in [6], above 76.6 µM. Moreover, the TGI in assay [7] is above 100 µM; in [8], above 73.5 µM; in assay [9], above 100 µM; in assay [10], above 100 µM.

As to `COc1cccc(-c2nn(-c3ccccc3)cc2-c2ccnc(NCCNC(=O)Nc3ccc(Cl)c(Cl)c3)c2)c1`, the GI50 in assay [1] is 1.67 µM; in assay [2], 1.91 µM; in assay [3], 1.93 µM; in [4] it was 1.66 µM; in assay [5], 3.09 µM; in assay [6], 2.5 µM. Moreover, the GI50 was 2.17 µM in assay [7], 2.41 µM in [8], 2.7 µM in [9] and 1.86 µM in [10]. Moreover, the TGI in assay [1] came out at 4.05 µM; in [2], 5.39 µM; in [3], 4.17 µM; in assay [4], 3.21 µM; in [5], 11.1 µM; in assay [6], 8.36 µM. Moreover, the TGI in [7] was found to be 5.33 µM; in [8] it was 7.28 µM; in assay [9] it was 11.1 µM; in [10], 4.26 µM.

Take `O=C(/C=C/N1CCN(c2cccc(C(F)(F)F)c2)CC1)c1ccc(Cl)cc1Cl`: the GI50 in assay [1] was 17.2 µM; in assay [2], 38.6 µM; in [3], 24.8 µM; in assay [4], 22.7 µM; in assay [5] it was 35.8 µM; in [6], 31.7 µM. Moreover, the GI50 was 23.6 µM in assay [7], 14.7 µM in [8], 38.8 µM in assay [9] and 25.6 µM in assay [10]. Also, the TGI in [1] is 36.1 µM; in [2], above 100 µM; in [3], 51.3 µM; in assay [4], 47.1 µM; in [5], above 100 µM; in assay [6], above 100 µM. In addition, the TGI in [7] was 50.2 µM; in assay [8], 32.4 µM; in [9], above 100 µM; in [10], 44.6 µM.

Values taken from PubChem BioAssay (NCI).
